Measured values: patent publication US12636340B2, “Methods of treating multiple myeloma” (ONYX PHARMACEUTICALS, INC., priority 2020, dated 2026)

Type: in vivo
Conditions: both treatment groups together
Protocol: Key exclusion criteria related to significant baseline pulmonary and cardiac disease, including uncontrolled hypertension (defined as an average systolic blood pressure >159 mmHg or diastolic >99 mmHg despite optimal treatment). Analysis of LVEF changes over time was conducted. Long-term corticosteroid treatment equivalent to a dexamethasone dose of 4.0 mg/day or prednisone at a dose of >20 mg/day was not permitted while receiving study treatment. Corticosteroids administered short-term (up to 2 weeks) were permitted, provided the cumulative dose was less than a 40 mg per week dexamethasone equivalent.
Randomization was performed using an interactive voice or web response system. […]
Statistical analysis: Efficacy evaluations were based on the intention-to-treat population. […] For primary and key secondary endpoints, response and disease progression were determined by a blinded Independent Review Committee. Additionally, they were determined locally by investigators in an unblinded manner and centrally by the sponsor using a validated computer algorithm, which served as sensitivity analysis of PFS.
Descriptive statistics identified the extent of missing data. […] For patients who died on study, the death date was recorded on the end of study CRF page at the end of the study date. […]

CC(C)C[C@H](NC(=O)[C@H](CCc1ccccc1)NC(=O)CN1CCOCC1)C(=O)N[C@@H](Cc1ccccc1)C(=O)N[C@@H](CC(C)C)C(=O)[C@@]1(C)CO1 [carfilzomib]
patients who discontinued carfilzomib due to AEs, overall: 21.3%
